These are literature values, as cited in patent US20070197544A1, “ILOPROST IN COMBINATION THERAPIES FOR THE TREATMENT OF PULMONARY ARTERIAL HYPERTENSION” (CoTherix, Inc., priority 2003, published 2007).

The conditions of data set [1]: 20 mg, 12-week period.
The conditions of data set [2]: at least one year of treatment.
Assay in data set [3]: not given
This is another data set of the same source.

The conditions of data set [4]: oral, at 3 and 6 months.
The conditions of data set [5]: versus placebo, severe PAH.
The conditions of data set [6]: long-term use of aerosolized iloprost, severe pulmonary hypertension.
For data set [7] the following is noted: continuous infusion, severe pulmonary hypertension.
For data set [8] the following is noted: administered by aerosolization, patients with pulmonary hypertension.
The conditions of data set [9]: open pilot study.

Counter-ions that a name gives are not always drawn. Like-named read-outs stand apart in the source and are kept apart here.

For `CN1CC(=O)N2[C@H](c3ccc4c(c3)OCO4)c3[nH]c4ccccc4c3C[C@@H]2C1=O` [Cialis, Tadalafil], in data set [1], the “most commonly reported (greater than or equal to 5 percent) treatment-emergent adverse effects” value is “headache, back pain, and upset stomach”; the “patients who discontinued the study because of adverse events” value is reported as 5%. The “most commonly reported treatment-emergent adverse effects” value in [2] (10 mg or 20 mg) is “headache and upset stomach”. In addition, in data set [2], the “discontinuation rate for any individual adverse event” value is listed as “less than 1%” and the “patients who discontinued the study due to side effects” value is reported as “Five”.

In the case of `CCCc1nc(C)c2c(=O)[nH]c(-c3cc(S(=O)(=O)N4CCN(CC)CC4)ccc3OCC)nn12` [Levitra, vardenafil HCl], the “most commonly reported side effects” value (in vivo) is “headache, flushing, and stuffy or runny nose”. Also, for the setting “phase III clinical studies”, the erectile function result is “Helped men get and keep an erection sufficient for satisfactory sexual performance”.

Regarding `COc1ccccc1Oc1c(NS(=O)(=O)c2ccc(C(C)(C)C)cc2)nc(-c2ncccn2)nc1OCCO` [bosentan], in data set [3] (higher dose), the liver toxicity entry is given as “liver toxicity occurred”. Moreover, the “six minute walk test” value in [3] (whole group, improvement greater at higher doses) is “improved”.

Turning to `CC#CCC(C)[C@H](O)/C=C/[C@@H]1[C@H]2c3cccc(CCCC(=O)O)c3O[C@H]2C[C@H]1O` (mixture of isomers) [Beraprost], the “benefit in PAH” value in [4] was “shown a benefit”.

In the case of `CC#CCC(C)[C@H](O)/C=C/[C@@H]1[C@H]2C/C(=C/CCCC(=O)O)C[C@H]2C[C@H]1O` (stereo partly shown) [Iloprost], the exercise capacity result in data set [5] is “improved exercise capacity”. Also, the clinical improvement entry in data set [6] is on record as “substantial clinical improvement”.

For the molecule `CCCCC[C@H](O)/C=C/[C@@H]1[C@H]2C/C(=C/CCCC(=O)O)O[C@H]2C[C@H]1O` [prostacyclin], in data set [7], the mortality entry was “reduce mortality”. The “duration of effects (pulmonary vasodilatation)” value in data set [8] is 15 min.

With `Cc1cc2c(cc1CC(=O)c1sccc1S(=O)(=O)Nc1onc(C)c1Cl)OCO2` [sitaxsentan], in data set [9], the “decrease in pulmonary vascular resistance” value was 30% and the “six minute walk test” value is recorded as “improvement”.
